Here are results for 18 compounds from patent publication US9510598B2, “Nitrogen-containing heterocyclic compounds for plant disease control” (BAYER CROPSCIENCE AG, priority 2012, dated 2016).

Where “and” joins values, the source holds several entries; their conditions need not be identical. Equal entries are not always repeated. Where two headings read alike, the source gives them in different places.

Series [1] is classed as physicochemical.
For another series, the system named is Alternaria brassicae. The series can be described thus: In vivo preventive test on Alternaria brassicae (leaf spot on radish). The settings on record: 500 ppm; radish plants sprayed 24 hours before contamination; grading 5 days after contamination vs control plants. Summed up:
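Radish plants ('Pernod Clair', grown at 17 °C) were spray-treated at the 2-leaf stage; controls received solvent mix only. After 24 h, leaves were sprayed with 50 000 spores/ml from 15-day-old cultures, and % efficacy was graded 5 days post-inoculation against controls.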

For a further series, the system named is Pyrenophora teres. Kind of series: In vivo preventive test on Pyrenophora teres (net blotch on barley). The note with it: 500 ppm; barley plants sprayed 24 hours before contamination; grading 12 days after contamination vs control plants. As to the method: Barley plants (“Plaisant” variety), sown in starter cups on a 50/50 peat soil-pozzolana substrate and grown at 22° C. (12 h)/20° C. (12 h), are treated at the 1-leaf stage (10 cm height) by spraying with the active ingredient prepared as described above. Plants, used as controls, are treated with the mixture of acetone/tween/DMSO/water not containing the active material. After 24 hours, the plants are contaminated by spraying the leaves with an aqueous suspension of Pyrenophora teres spores (12 000 spores per ml). The spores are collected from a 12-day-old culture. […] Grading (% of efficacy) is carried out 12 days after the contamination, in comparison with the control plants.

Another series has as its system Puccinia recondita. The series can be described thus: In vivo preventive test on Puccinia recondita (brown rust on wheat). The settings on record: 500 ppm; wheat plants sprayed 24 hours before contamination; grading 10 days after contamination vs control plants. Summed up:
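Wheat (Scipion) grown at 22° C./20° C. (12 h each), sprayed with active ingredient at 1-leaf stage (10 cm); controls sprayed with acetone/tween/DMSO/water lacking active. Leaves inoculated 24 hours later with Puccinia recondita spore suspension (100 000 spores per ml).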

Another series relates to Septoria tritici. The series can be described thus: In vivo preventive test on Septoria tritici (leaf spot on wheat). The settings on record: 500 ppm; wheat plants sprayed 24 hours before contamination; grading 21 to 28 days after contamination vs control plants. Summed up:
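Scipion wheat at 1-leaf stage sprayed with compound, controls receiving acetone/tween/DMSO/water vehicle; 24 h later leaves inoculated with Septoria tritici spores (500 000 spores per ml). Efficacy (%) graded versus control plants 21 to 28 days after contamination.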

In another series the test system is Uromyces appendiculatus. Kind of series: In vivo preventive test on Uromyces appendiculatus (bean rust). The note with it: 500 ppm; bean plants sprayed 24 hours before contamination; grading 10 days after contamination vs control plants. As to the method: Bean plants (“Saxa” variety), sown in starter cups on a 50/50 peat soil-pozzolana substrate and grown at 24° C., are treated at the 2-leaf stage (9 cm height) by spraying with the active ingredient prepared as described above. Plants, used as controls, are treated with the mixture of acetone/tween/DMSO/water not containing the active material. After 24 hours, the plants are contaminated by spraying the leaves with an aqueous suspension of Uromyces appendiculatus spores (150 000 spores per ml).

Another series deals with Sphaerotheca fuliginea. The series can be described thus: In vivo preventive test on Sphaerotheca fuliginea (powdery mildew on cucurbits). The note with it: 500 ppm; gherkin plants sprayed 24 hours before contamination; grading 12 days after contamination vs control plants. Summed up:
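Preventive spray of gherkin plants at Z11 cotyledon stage, grown at 24° C; inoculation 24 hours later with Sphaerotheca fuliginea spores (100 000 spores per ml). Efficacy graded 12 days post-inoculation as % versus solvent-treated control plants.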

The next series concerns Botrytis cinerea. The series can be described thus: In vivo preventive test on Botrytis cinerea (grey mould). The settings on record: 500 ppm; gherkin plants sprayed 24 hours before contamination; grading 4-5 days after contamination vs control plants. The method in brief: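 Gherkin plants ("Vert petit de Paris") sprayed with compound at Z11 cotyledon stage, then inoculated 24 h later with B. cinerea spores (50 000/ml) in PDB/fructose/NH4NO3/KH2PO4 nutrient solution. Incubated at 17 °C, 80% RH; % efficacy versus solvent-treated controls graded 4–5 days after contamination.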

In the next series the test system is Peronospora parasitica. Kind of series: In vivo preventive test on Peronospora parasitica (crucifer downy mildew). The note with it: 500 ppm; cabbage plants sprayed 24 hours before contamination; grading 5 days after contamination vs control plants. The method, then:
Cabbage plants (Eminence variety) in starter cups, sown on a 50/50 peat soil-pozzolana substrate and grown at 18-20° C., are treated at the cotyledon stage by spraying with the aqueous suspension described above. Plants, used as controls, are treated with an aqueous solution not containing the active material. After 24 hours, the plants are contaminated by spraying them with an aqueous suspension of Peronospora parasitica spores (50.000 spores per ml). The spores are collected from infected plant. The contaminated cabbage plants are incubated for 5 days at 20° C., under a humid atmosphere. Grading is carried out 5 days after the contamination, in comparison with the control plants.

Another series has as its system Phytophthora infestans. Format: in vivo. The settings on record: 500 ppm; tomato plants sprayed 24 hours before contamination; grading 5 days after contamination vs control plants.
[2] abbreviates: method [a]: HPLC/LC-MS on reversed phase at pH 2.7, 0.1% formic acid in water / acetonitrile, gradient 10% to 95% acetonitrile.
Where [3] appears, read: method [a]: HPLC/LC-MS on reversed phase at pH 2.7, 0.1% formic acid in water / acetonitrile, linear gradient 10% to 95% acetonitrile.

Take `CCn1cc(CNC(=O)C2(C)CC(c3ccc4ncc(C(F)(F)F)cc4c3)=NO2)c(C)n1` (racemic) [compound 383]: the “log P” value in [1] (setting [2]) was 2.45[a]. The “% of efficacy (protection)” value in the series with Alternaria brassicae is 83%; in the series on Pyrenophora teres, 86%; with Puccinia recondita, 94%; with Septoria tritici, 100%; with Uromyces appendiculatus, 99%.

Take `CC(C)NC(=O)C1(C)CC(c2ccc3ncc(C(F)(F)F)cc3c2)=NO1` (racemic) [compound 384]: in [1] (setting [2]), the “log P” value is 2.90[a]. The “% of efficacy (protection)” value in the series with Alternaria brassicae turned out to be 83%; in the series on Pyrenophora teres, 86%; in the series on Puccinia recondita it was 89%; in the series with Septoria tritici, 100%; with Uromyces appendiculatus it was 79%.

`CC(C)NC(=O)C1(C)CC(c2ccc3ncc(N)cc3c2)=NO1` (racemic) [compound 435]: in [1] (setting [2]), the “log P” value is 1.19[a]. Further, the “% of efficacy (protection)” value in the series on Pyrenophora teres was found to be 83%; in the series with Uromyces appendiculatus, 77%.

Consider `COC1(C(=O)NC(C)C)CC(c2ccc3ncc(I)cc3c2)=NO1` (racemic) [compound 436], for which, in series [1] (setting [2]), the “log P” value is 2.75[a]. In addition, the “% of efficacy (protection)” value in the series on Pyrenophora teres came to 92%; in the series with Puccinia recondita, 94%; in the series on Septoria tritici, 100%; in the series on Sphaerotheca fuliginea, 100%; in the series on Uromyces appendiculatus, 100%.

For the compound `CC(C)NC(=O)C1(C)CC(c2ccc3ncc(Br)cc3c2)=NO1` (stereo not drawn) [compound 31], in series [1] (setting [3]), the “log P” value is 2.75^[a]. Besides, the entries for the “% of efficacy (protection)” value in the series with Botrytis cinerea, with Septoria tritici and in the series on Sphaerotheca fuliginea were 93%, 100% and 100%, respectively. The “Grading, protection” value in the series with Peronospora parasitica stood at 90%.

With `CCn1cc(CNC(=O)C2(C)CC(c3ccc4ncc(Br)cc4c3)=NO2)c(C)n1` (stereo not drawn) [compound 34], the “log P” value in [1] (setting [3]) is 2.39^[a]. Also, the “% of efficacy (protection)” value in the series with Botrytis cinerea is 100%; in the series with Phytophthora infestans, 99%; in the series with Sphaerotheca fuliginea, 94% and 98%. Further, in the series on Peronospora parasitica, the “Grading, protection” value amounted to 98%.

In the case of `CCn1cc(CNC(=O)C2(C(F)(F)F)CC(c3ccc4ncc(Br)cc4c3)=NO2)c(C)n1` (stereo not drawn) [compound 35], in [1] (setting [3]), the “log P” value was 3.02^[a]. Besides, in the series with Peronospora parasitica, the “Grading, protection” value is 90%. In addition, in the series on Septoria tritici, the “% of efficacy (protection)” value is given as 97%.

As for `CC(C)NC(=O)C1(C(F)(F)F)CC(c2ccc3ncc(Br)cc3c2)=NO1` (stereo not drawn) [compound 36], in [1] (setting [3]), the “log P” value was 3.52^[a]. The “Grading, protection” value with Peronospora parasitica is on record as 98%. In addition, the “% of efficacy (protection)” value is on record as 79% with Pyrenophora teres, 79% in the series with Puccinia recondita and 100% with Septoria tritici.

Turning to `CCn1cc(CNC(=O)C2(C)CC(c3ccc4ncc(I)cc4c3)=NO2)c(C)n1` (stereo not drawn) [compound 39], the “log P” value in series [1] (setting [3]) was 2.49^[a]. Further, the “% of efficacy (protection)” value in the series with Botrytis cinerea, with Phytophthora infestans and in the series with Sphaerotheca fuliginea was 100% in each case. Moreover, the “Grading, protection” value in the series with Peronospora parasitica was 100%.

With `C#Cc1cnc2ccc(C3=NOC(C)(C(=O)NCc4cn(CC)nc4C)C3)cc2c1` (stereo not drawn) [compound 43], the “log P” value in [1] (setting [3]) is 2.14^[a]. For the same compound, the “% of efficacy (protection)” value was 100% in the series on Botrytis cinerea; 100% in the series on Phytophthora infestans; 75% in the series with Puccinia recondita; 100% in the series on Sphaerotheca fuliginea; 97% in the series on Uromyces appendiculatus. The “Grading, protection” value with Peronospora parasitica amounted to 94%.

Consider `CCn1cc(CNC(=O)C2(OC)CC(c3ccc4ncc(Br)cc4c3)=NO2)c(C)n1` (stereo not drawn) [compound 47], for which the “log P” value in series [1] (setting [3]) was 2.31^[a]. In addition, the “% of efficacy (protection)” value in the series with Botrytis cinerea is on record as 95%; in the series on Pyrenophora teres, 75%; in the series with Septoria tritici it was 100%. Besides, in the series with Peronospora parasitica, the “Grading, protection” value is 100%.

As to `CCCn1cc(CNC(=O)C2(C)CC(c3ccc4ncc(Br)cc4c3)=NO2)c(C)n1` (stereo not drawn) [compound 49], the “log P” value in [1] (setting [3]) was 2.64^[a]. The “% of efficacy (protection)” value in the series on Botrytis cinerea was 100%; in the series on Phytophthora infestans it was 100%; in the series with Septoria tritici it was 79% and 97%; in the series with Sphaerotheca fuliginea, 98%. Further, the “Grading, protection” value with Peronospora parasitica was 100%.

With `CCOCCCNC(=O)C1(OC)CC(c2ccc3ncc(Br)cc3c2)=NO1` (stereo not drawn) [compound 52], the “log P” value in series [1] (setting [3]) is 2.68^[a]. Moreover, the “% of efficacy (protection)” value with Alternaria brassicae was 71% and 75%; with Botrytis cinerea, 100%; with Pyrenophora teres, 71%; with Puccinia recondita it was 88%; with Septoria tritici, 93% and 97%; in the series on Sphaerotheca fuliginea it was 100%.

Consider `CCOCCCNC(=O)C1(C(F)(F)F)CC(c2ccc3ncc(Br)cc3c2)=NO1` (stereo not drawn) [compound 105], for which the “log P” value in [1] (setting [3]) was 3.57^[a]. Further, the “% of efficacy (protection)” value amounted to 70% in the series with Alternaria brassicae; 79% in the series with Pyrenophora teres; 71% in the series on Puccinia recondita; 75% in the series on Septoria tritici; 100% with Sphaerotheca fuliginea; 86% in the series on Uromyces appendiculatus.

`CC1(C)OCC(CNC(=O)C2(C)CC(c3ccc4ncc(Br)cc4c3)=NO2)O1` (stereo not drawn) [compound 129]: the “log P” value in series [1] (setting [3]) was 2.64^[a]. Besides, the “% of efficacy (protection)” value in the series on Phytophthora infestans came to 85%; with Pyrenophora teres, 88%; in the series with Septoria tritici it was 100%; with Sphaerotheca fuliginea, 80%; in the series with Uromyces appendiculatus, 100%.

For `C#Cc1cnc2ccc(C3=NOC(C)(C(=O)NCc4ccc(Cl)cc4Cl)C3)cc2c1` (stereo not drawn) [compound 198], the “log P” value in [1] (setting [3]) is 3.73^[a]. For the same compound, the “% of efficacy (protection)” value in the series with Alternaria brassicae was 98%; with Botrytis cinerea it was 95%; in the series with Pyrenophora teres, 86%; with Septoria tritici, 86%.

Regarding `C#Cc1cnc2ccc(C3=NOC(C)(C(=O)NCc4ccc5c(c4)CCO5)C3)cc2c1` (stereo not drawn) [compound 219], the “log P” value in series [1] (setting [3]) was 2.78^[a]. Further, the “% of efficacy (protection)” value is listed as 75% in the series on Alternaria brassicae, 99% in the series with Botrytis cinerea and 71% with Pyrenophora teres.

With `C#CCONC(=O)C1(C)CC(c2ccc3ncc(Br)cc3c2)=NO1` (stereo not drawn) [compound 306], the “log P” value in series [1] (HPLC on reversed phase columns, method [a]: pH 2.7, 0.1% formic acid in water / acetonitrile, linear gradient 10% to 95% acetonitrile) is 2.22[a]. Also, the “% of efficacy (protection)” value in the series with Alternaria brassicae is given as 71%; in the series with Pyrenophora teres, 75%; in the series with Septoria tritici it was 78%; in the series with Uromyces appendiculatus, 100%.
